Source: patent US6420348B1, “Pectic polysaccharides purified from Angelica gigas nakai and purification method and use as immunostimulating agent thereof” (Korea Institute of Science and Technology, priority 1997, dated 2002)

Key:
[1] = system: B cell-depleted cell group (T cells); experiment: mitogenicity comparison, 3H-thymidine incorporation; type: cell-based, mice; settings: 5 μg/ml
Excerpt: (§1) In this example, the action mode of angelan was compared with those of other lymphocyte mitogens in three different lymphocyte groups. Lipopolysaccharide (LPS) was employed to induce the proliferation of B cell while phytohemagglutinin (PHA) and concanavalin A (Con A) were used as T cell mitogens. As a comitogen, that is, in order to induce both T-cells and B-cells to proliferate, pokeweed mitogen (PWM) was used.
(§2) Angelan was given to three different cell groups: total cell group including T- and B-cells, T cell-depleted cell group, and B cell-depleted cell group. Each cell groups were treated with angelan or one of LPS, PWM, Con A and PHA. After incubation, lymphocyte proliferation was measured by the incorporation of 3H-thymidine into the cellular DNA.

[2] = system: T cell-depleted cell group (B cells); experiment: as above; type: cell-based, mice; settings: for Proliferation B cells: 5 μg/ml; for mitogenicity (in words): B cell-enriched group
Excerpt: as §1, §2

[3] = system: total cell group including T- and B-cells; experiment: as above; type: cell-based, mice; settings: 5 μg/ml
Excerpt: as §1, §2

B16F10 melanoma = experiment: host resistance model to syngeneic tumors; type: in vivo, BDF1 mice; settings: for Viability: relative to non-treated mice; for Survival Animals (10 in total): survived 60 days
Method: The host resistance model to syngeneic tumors was prepared by the intraperitoneal transplantation of B16F10 melanoma to BDF1 mice. After transplantation, angelan was administered at a dose of 100 mg/kg/day while adriamicin was administered at a dose of 0.1 to 0.3 mg/kg. The survival rates of the treated mice was based on the viability of non-treated mice, and the number of the animals which survived for 60 days after the implantation, was counted.

B16F10 cancer cells = experiment: direct cytotoxicity on cancer cells; type: cell-based; settings: for survival number of treated cells as ratio to non-treated cells: 2 days
Method: Whether the anticancer effect of angelan came from specific mediation by cytotoxic T cells or from nonspecific mediation by macrophages and natural killer cells, was proven as follows. B16F10 cancer cells were treated with angelan and adriamicin at a dose of 0.3 to 30 μg/ml. After incubation for 2 days, the number of the survived cells was countered. The survival number of the treated cells was expressed as a ratio compared with the number of the non-treated cells.

Compound	Proliferation T cells [1]	Proliferation B cells [2]	mitogenicity (in words) [2]	Proliferation B/T cells [3]	further results
pokeweed mitogen [PWM]	12171 cpm/200,000 cells	358 cpm/200,000 cells	had an effect	10212 cpm/200,000 cells	–
concanavalin A [Con A]	3929 cpm/200,000 cells	6566 cpm/200,000 cells	–	6014 cpm/200,000 cells	–
Lipopolysaccharide [LPS]	869 cpm/200,000 cells	11550 cpm/200,000 cells	had an effect	11665 cpm/200,000 cells	–
phytohemagglutinin [PHA]	3127 cpm/200,000 cells	446 cpm/200,000 cells	–	1049 cpm/200,000 cells	–
COc1cccc2c1C(=O)c1c(O)c3c(c(O)c1C2=O)C[C@@](O)(C(=O)CO)C[C@@H]3O[C@H]1C[C@H](N)[C@H](O)[C@H](C)O1 [Adriamicin]	–	–	–	–	Viability (B16F10 melanoma; adriamicin 0.1 mg/kg): 195%; Survival Animals (10 in total) (B16F10 melanoma; adriamicin 0.1 mg/kg): 0; Viability (B16F10 melanoma; adriamicin 0.3 mg/kg): >240%; Survival Animals (10 in total) (B16F10 melanoma; adriamicin 0.3 mg/kg): 2; cytotoxicity on cancer cells (in words) (B16F10 cancer cells): showed cytotoxicity on cancer cells; survival number of treated cells as ratio to non-treated cells (B16F10 cancer cells; 0.3 μg/ml): 56; survival number of treated cells as ratio to non-treated cells (B16F10 cancer cells; 1 μg/ml): 29; survival number of treated cells as ratio to non-treated cells (B16F10 cancer cells; 3 μg/ml): 9; survival number of treated cells as ratio to non-treated cells (B16F10 cancer cells; 10 μg/ml): 0; survival number of treated cells as ratio to non-treated cells (B16F10 cancer cells; 30 μg/ml): 0
